Converted amounts (≈) assume the structure as drawn. Bridge positions count the residues as written; N and C are the ends. Peptide text beside a SMILES is read from it.
Key:
MRSA USA300 cells = assay: Serial passage / resistance assay; type: cell-based, Staphylococcus aureus; conditions: for fold increase in MIC during serial passage: sub-MIC exposure over 20 days, MRSA USA300; for resistant mutants after serial passage: sub-lethal doses over a period of 20 days
Procedure: In vitro evaluation of the potential for MRSA USA3000 cells to develop resistance to HG2 and HG4 was performed as follows. […] Cultures from the highest concentration that supported growth were diluted 1: 1000 in MHB and used to provide the inoculum for the next passage day. This process was performed for a total duration of 20 days. Any putative mutants recovered were isolated via streak dilution for three generations on MHA, prior to further characterisation.

[1] = Peptide-lipid interaction and insertion, lipid monolayer; type: binding, human; conditions: Erythrocyte extract; initial surface pressure 30+/-0.5 mN/m
Procedure: (§1) Peptide–lipid interaction was measured using a lipid monolayer formed at the air:water interface with total lipid extracts and pure lipids. Total lipids were extracted from overnight cultures of MRSA or human erythrocytes using the Folch extraction procedure[14],[40]. Extracted total lipids were dried, re-solubilised in chloroform:methanol (2:1, v/v) and stored at −20 °C under nitrogen. […] The variation of the surface pressure caused by peptide insertion was then continuously monitored using a fully automated microtensiometer (µTROUGH SX, Kibron Inc, Finland) until it reached equilibrium (maximal surface pressure increase is usually obtained after 15–25 min). […] In other experiments, the critical pressure of insertion of HG2 or HG4 in the total lipid extracts and pure lipids was measured as follows[14],[56]. Briefly, in these experiments, the initial pressure of the lipid monolayer was set up at different values (between 10 and 30 mN/m) and the variation of pressure caused by the injection of the peptide was measured. […] All experiments were carried out in a controlled atmosphere at 20 ± 1 °C and data were analyzed using the Firmware 2.5 programme (Kibron Inc.). The accuracy of the system under our experimental conditions was determined to be ±0.25 mN/m for surface pressure measurements.

[2] = Pure lipid preference order from critical pressure of insertion; type: binding; conditions: pure bacterial and eukaryotic lipids
Procedure: as §1

[3] = system: IMR-90 (normal fibroblasts); assay: Cytotoxicity, resazurin cell viability; type: cell-based, human; conditions: 48 h
Procedure: (§2) The toxicity of HG2 and HG4 was tested by a well-known method[60] using the following cell types: BEAS-2B (normal airway epithelial cells, ATCC CRL-9609), IMR-90 (normal fibroblasts, ATCC CCL-186) and HepG2 (liver cell line, ATCC HB-8065). BEAS-2B, IMR-90 and HepG2 cells were cultured in Dulbecco’s modified essential medium (DMEM) supplemented with 10% fetal calf serum (FCS), 1% L-glutamine and 1% antibiotics (all from Invitrogen). Cells were routinely grown onto 25 cm^2 flasks maintained in a 5% CO2 incubator at 37 °C. Briefly, cells grown on 25 cm^2 flasks were detached using trypsin-EDTA solution (Thermofisher) and seeded into 96-well cell culture plates (Greiner Bio-one) at ~10^4 cells per well (counted using Mallasez’s chamber). The cells were grown at 37 °C in a 5% CO2 incubator until they reached confluence (~48–72 h of seeding). Wells were then aspirated and increasing concentrations of HG2 or HG4 were added to the cells and incubated for a further 48 h at 37 °C in a 5% CO2 incubator. The wells were then emptied, and cell viability was evaluated using a resazurin based in vitro toxicity assay kit (Sigma-Aldrich) following the manufacturer’s instructions. Briefly, the resazurin stock solution was diluted at 1:100 in sterile PBS containing calcium and magnesium (PBS^++, pH 7.4) and emptied wells were filled with 100 µl of the diluted resazurin solution. After 4 h incubation at 37 °C with the peptide-treated cells, fluorescence intensity was measured using a microplate reader (excitation wavelength of 530 nm/emission wavelength of 590 nm). The fluorescence values were normalised by the controls and expressed as the percentage of cell viability. The IC50 values of HG2 or HG4 on cell viability (i.e. the concentration of peptides causing a reduction of 50% of the cell viability) were calculated using GraphPad® Prism 7 software.

HepG2 (liver cell line) = assay: Cytotoxicity, resazurin cell viability; type: cell-based, human; conditions: 48 h
Procedure: as §2

[4] = system: BEAS-2B (normal airway epithelial cells); assay: Cytotoxicity, resazurin cell viability; type: cell-based, human; conditions: 48 h
Procedure: as §2

[5] = system: A. baumannii (IMI, MER resistant; strain ID not given); assay: microbe, parasite or virus in culture; type: cell-based, Acinetobacter baumannii; conditions: MER resistant, no strain ID printed
Procedure: (§3) To determine the antimicrobial activity of the new antimicrobial peptides, HG2 and HG4, their minimum inhibitory concentrations (MICs) were determined by broth microdilution method[51] in cation adjusted Mueller Hinton broth (MHB) following the International Organisation for Standardisation (ISO) 20776-1 standard for MIC testing using a final bacterial inoculum of 5 × 10^5 CFU/ml[52]. […] The peptides dissolved in sterile distilled water were added to bacteria culture and incubated overnight at appropriate conditions. The MICs of the peptides and comparator antibiotics were recorded after 18–24 h. The minimum bactericidal concentrations (MBCs) were also determined and were taken as the lowest concentration of the antimicrobial that prevented the growth of bacterial cells after the subculture of cells (from MIC treatment) onto antibiotic-free media.

A. baumannii 515785 = assay: microbe, parasite or virus in culture; type: cell-based, Acinetobacter baumannii; conditions: 515785
Procedure: as §3

A. baumannii 515908 = assay: microbe, parasite or virus in culture; type: cell-based, Acinetobacter baumannii; conditions: 515908
Procedure: as §3

A. baumannii 515722 = assay: microbe, parasite or virus in culture; type: cell-based, Acinetobacter baumannii; conditions: 515722
Procedure: as §3

P. aeruginosa = assay: microbe, parasite or virus in culture; type: cell-based, Pseudomonas aeruginosa
Method in brief: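 MIC: cation-adjusted MHB, ISO 20776-1 microdilution, 5 × 10^5 CFU/ml final; peptides in sterile water; read at 18–24 h. MBC: MIC wells subcultured onto drug-free media, lowest concentration with no growth.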

For `CC[C@H](C)[C@H](NC(=O)[C@H](CC(C)C)NC(=O)[C@H](CC(C)C)NC(=O)[C@H](CC(C)C)NC(=O)[C@H](CCCCN)NC(=O)[C@H](CCCCN)NC(=O)[C@@H](N)CCSC)C(=O)N[C@@H](CC(C)C)C(=O)N[C@@H](Cc1ccccc1)C(=O)N[C@H]1CSSC[C@@H](C(=O)N[C@@H](CCCCN)C(=O)N[C@@H](CCCCN)C(=O)N[C@@H](C)C(=O)N2CCC[C@H]2C(N)=O)NC(=O)CNC(=O)[C@H](C)NC(=O)[C@H](CC(C)C)NC(=O)[C@H](C)NC(=O)[C@H](CC(C)C)NC(=O)[C@H](C)NC(=O)[C@H](CC(C)C)NC1=O` [HG2] (H-MKKLLLILFCLALALAGCKKAP-NH2; disulfide 10-18; N-terminus assumed), the “fold increase in MIC during serial passage” value (MRSA USA300 cells) was 1–2 fold, the “resistant mutants after serial passage” value (MRSA USA300 cells) was “did not produce resistant mutants” and the Speed of insertion [1] was 1.13 mN/m/10 sec. The “order of preference for pure lipids (critical pressure of insertion)” value [2] was “PC > PG > LTA > Cardio > PE > LPS”, the “IC50 (cell viability)” value [3] was 96 ± 21 µg/mL (≈ 40.7 µM) and the “IC50 (cell viability)” value (HepG2 (liver cell line)) was 359 ± 76 µg/mL (≈ 152 µM). For the same molecule, the “IC50 (cell viability)” value [4] was 120 ± 25 µg/mL (≈ 50.9 µM), the MIC [5] was 128 µg/mL (≈ 54.3 µM) and the MIC (A. baumannii 515785) was 256 µg/mL (≈ 109 µM). It also gave an MIC (A. baumannii 515908) of 32 µg/mL (≈ 13.6 µM) and an MIC (A. baumannii 515722) of 16 µg/mL (≈ 6.79 µM).
With `CC[C@H](C)[C@H](NC(=O)[C@H](CC(C)C)NC(=O)[C@H](CC(C)C)NC(=O)[C@H](C)NC(=O)CNC(=O)CNC(=O)[C@@H](NC(=O)[C@@H](NC(=O)[C@H](CC(C)C)NC(=O)[C@H](C)NC(=O)[C@H](CC(C)C)NC(=O)CNC(=O)[C@H](CC(C)C)NC(=O)[C@@H](N)C(C)C)[C@@H](C)CC)C(C)C)C(=O)N[C@@H](CCCCN)C(=O)N[C@@H](CCCCN)C(=O)N[C@@H](CCCCN)C(=O)N[C@@H](CCC(N)=O)C(=O)N[C@@H](C)C(=O)N[C@@H](CCCCN)C(=O)N[C@@H](CO)C(N)=O` [HG4] (H-VLGLALIVGGALLIKKKQAKS-NH2; N-terminus and C-terminus assumed) the “fold increase in MIC during serial passage” value (MRSA USA300 cells) was 1–2 fold, the “resistant mutants after serial passage” value (MRSA USA300 cells) was “did not produce resistant mutants” and the Speed of insertion [1] was 1.20 mN/m/10 sec. For the same molecule, the “order of preference for pure lipids (critical pressure of insertion)” value [2] was “PG > cardiolipin > LTA > LPS > PE > PC”, the “Minimum inhibitory Concentrations MICs” value (P. aeruginosa) was no less than 1024 µg/mL and the “IC50 (cell viability)” value [3] was 294 ± 42 µg/mL (≈ 139 µM). For the same molecule, the “IC50 (cell viability)” value (HepG2 (liver cell line)) was greater than 1000 µg/mL, the “IC50 (cell viability)” value [4] was greater than 1000 µg/mL and the MIC [5] was 64 µg/mL (≈ 30.2 µM). The MIC (A. baumannii 515785) was 128 µg/mL (≈ 60.4 µM), the MIC (A. baumannii 515908) was 64 µg/mL (≈ 30.2 µM) and the MIC (A. baumannii 515722) was 32 µg/mL (≈ 15.1 µM).

From publication PMC9283466, “In silico identification of two peptides with antibacterial activity against multidrug-resistant Staphylococcus aureus” (NPJ Biofilms and Microbiomes, 2022)
